Patent US20040102454A1, “Phenylahistin and the phenylahistin analogs, a new class of anti-tumor compounds” (priority 1998, published 2004)
Values after ≈ are worked out from the molar mass of the structure shown. Values joined by “and” are separate entries in the source; they are usually repeats but may differ in a detail not shown here. Equal values may be shown once. Read-outs that look alike come from different tables or passages of the source.

Experiments:
[1] = system: Microtubule protein from bovine brain; experiment: Microtubule protein polymerization assay (turbidity); type: biochemical
Method: Microtubule protein was prepared from bovine brain tissue by two cycles of assembly and disassembly according to the method of Tiwari, S. C. et al. Anal. Biochem, (1993), 215, 96-103. Tubulin was purified from microtubule protein by phosphocellulose chromatography see Algaier, J. et al. Biochim. Biophys. Acta, (1988), 954, 235-43, and tubulin purity was evaluated by polyacrylamide gel electrophoresis, as in Laemmli, U.K., Nature, (1970), […], 680-85. […] Protein concentrations were determined using the Coomassie® Protein Assay Reagent from Pierce (Rockford, Ill.).
Polymerization of microtubule protein was monitored by an increase in turbidity at 37° C. in microtubule assembly buffer containing 100 mM MES, 0.5 mM MgCl2, 1 mM EGTA and 1 mM GTP. See Johnson, K. A. et al., J. Mol. Biol., (1977), 117, 1-31. Polymerization of purified tubulin was measured using the same method except the microtubule assembly buffer contained 4 M glycerol. See Lee, J. C. et al., Biochemistry, (1975), 14, 5183-87. Microtubule protein and tubulin polymerization was initiated by a temperature shift from 0° C. to 37° C. and turbidity was measured on a DU-20 thermocontrolled spectrophotometer from Beckman (Fullerton, Calif.) at 360 nm. Drugs were dissolved in dimethyl sulfoxide (DMSO), which was used in all experiments at a final concentration of 2% (v/v).
For this example, the microtubule protein polymerization assay was performed as follows. Microtubule protein was prepared from bovine brain tissue by two cycles of assembly and disassembly. Polymerization of microtubule protein was monitored by an increase in turbidity at 37° C. in microtubule assembly buffer containing 100 mM MES, 0.5 mM MgCl2, 1 mM EGTA and 1 mM GTP. The polymerization of microtubule protein was initiated by a temperature shift from 0° C. to 37° C. Turbidity was measured on a thermo-controlled spectrophotometer (Beckman DU-20, Fullerton, Calif.) at 360 nm. Compounds were dissolved in DMSO, which was used in all experiments at a final concentration of 2% (v/v).

Hela (ovary) = experiment: Antiproliferative activity, MTT assay (Table 7); type: cell-based; details: Homo sapiens, optical purity over 99.8%
Method: (§1) In order to examine detailed biological activity, especially antitumor activity of both (+)- and (−)-phenylahistin, resolution of (+)- and (−)-phenylahistin using chiral HPLC was conducted. By repeating chiral separation twice or three times, each enantiomer with an optical purity over 99.8% was obtained, and each enantiomer was recrystallizes from ethanol-hexane mixture.
(§2) Antitumor activity of (+)- and (−)-phenylahistin was examined against seven human cancer cell lines including A431, WiDr, TE-671, Hela, MCF7, A-549 and K562 cells.

A-431 (damal) = experiment: Antiproliferative activity, MTT assay (Table 7); type: cell-based; details: Homo sapiens, optical purity over 99.8%
Method: as §1, §2

WiDr (colon) = experiment: Antiproliferative activity, MTT assay (Table 7); type: cell-based; details: Homo sapiens, optical purity over 99.8%
Method: as §1, §2

A549 (lung) = experiment: Antiproliferative activity, MTT assay (Table 7); type: cell-based; details: Homo sapiens, optical purity over 99.8%
Method: as §1, §2

K562 (leukemia) = experiment: Antiproliferative activity, MTT assay (Table 7); type: cell-based; details: Homo sapiens, optical purity over 99.8%
Method: as §1, §2

TE-671 (CNS) = experiment: Antiproliferative activity, MTT assay (Table 7); type: cell-based; details: Homo sapiens, TE-671, TE-671 (CNS), optical purity over 99.8%
Method: as §1, §2

MCF7 (breast) = experiment: Antiproliferative activity, MTT assay (Table 7); type: cell-based; details: Homo sapiens, optical purity over 99.8%
Method: as §1, §2

P388 cells [2] = experiment: Cell cycle progression of P388, flow cytometer; type: cell-based, murine; details: 1×10^−5 M, 8-hour incubation; 97.8% e.e.
Method: The effect of phenylahistin on the cell cycle progression of P388 cells was also investigated using a flow cytometer, as described in Krishan, A., J. Cell Biol. (1975) 66, 188-193. P388 cells in the log growth phase were seeded into flasks and cultured for 14 hours, and then various concentrations of phenylahistin were added to each flask. After an 8-hour incubation, the cells were harvested and fixed with 50% MeOH at −20° C. overnight. The cells were washed with 30% MeOH and then with 10 mM PBS, and treated with 50 :g/ml propidium iodide at 4° C. for 2 hours. DNA histograms were obtained using a flow cytometer (Cyto ACE-300:JASCO).

[3] = system: seven human cancer cell lines; experiment: Antiproliferative activity, MTT assay, all lines of Table 7; type: cell-based
Method: as §1, §2

P388 cells [4] = experiment: P388 proliferation, Alamar Blue assay; type: cell-based, murine; details: Mus musculus, P388
Method: For this example, the Alamar Blue™ assay was performed as follows. Exponentially growing P388 cells were seeded into 96-well tissue culture plates (5×10^3 cells/100 μl/well) and cultured in RPMI 1640 medium supplemented with 10% fetal bovine serum for 16 h. Compounds (DMSO solution) were then added to each well at various concentrations, and the cells were cultured for an additional 48 h. Living cells were counted using Alamar Blue™ (BioSource International, Camarillo, Calif.), according to the method of Ahmed, S. A. et al., J. Immunol. Methods, 170, 211 (1994).

[5] = system: P388 murine leukemia cells; experiment: Cytotoxic effects of the phenylahistin enantiomers (Example 8); type: cell-based; details: Mus musculus, (−) 92.2% e.e., (+) 97.8% e.e.
From the text: The cytotoxic effects of the enantiomers of phenylahistin on P388 murine leukemia cells were examined. […] Judging from the content of (−)-phenylahistin in (+)-phenylahistin, (+)-phenylahistin was considered to have relatively low cytotoxicity to P388 cells.

[6] = system: K-562, human chronic myelogenic leukemia cells; experiment: Cell proliferation inhibiting effect, MTT (Example 5); type: cell-based; details: K562, K-562, 48-hours incubation
Method: (§3) K-562, human chronic myelogenic leukemia cells were cultured in […] culture medium (containing 10% bovine fetus serum) and A-431 human pudendal epithelial squamous cancer cells were cultured in DMEM culture medium, containing 10% bovine fetus serum. To these a continuous dilution series of the (+)-phenylahistin obtained in EXAMPLE 1 was added. After 48-hours incubation, a MTT reagent was added to measure growth.

[7] = system: A-431 human pudendal epithelial squamous cancer cells; experiment: as above; type: cell-based; details: A-431, 48-hours incubation
Method: as §3

Jurkat cells [8] = experiment: Cytotoxicity in Jurkat cells; details: Homo sapiens, read-out: Cytotoxicity Potency IC50
Jurkat cells [9] = system: Jurkat cells
[10] = system: HL-60/MX-2 (Mitoxantrone-Resistant) human acute promyelocytic leukemia cell line; experiment: Drug resistant cell line pair, cytotoxicity; type: cell-based
From the text: HL-60 (Mitoxantrone-Sensitive) and HL-60/MX-2 (Mitoxantrone-Resistant) This cell line is considered to have atypical drug resistance properties with altered topoisomerase II catalytic activity without overexpression of P-glycoprotein.

[11] = system: MES-SA DX (Taxol Resistant) human uterine sarcoma tumor cell line; experiment: Drug resistant cell line pair, cytotoxicity; type: cell-based
From the text: MES-SA (Taxol Sensitive) and MES-SA DX (Taxol Resistant). This cell line expresses elevated mdr-1 mRNA and P-glycoprotein (an extrusion pump mechanism). Pretreatment with cyclosporin-A (CsA) blocks P-glycoprotein and reinstates activity in the resistant cell line for those compounds for which the resistance is due to elevated P-glycoprotein.

[12] = system: HL-60 (Mitoxantrone-Sensitive) human acute promyelocytic leukemia cell line; experiment: Drug resistant cell line pair, cytotoxicity; type: cell-based; details: Homo sapiens; HL-60 Sensitive
From the text: 2) Human Acute Promyelocytic Leukemia Cell Line Pair: HL-60 (Mitoxantrone-Sensitive) and HL-60/MX-2 (Mitoxantrone-Resistant)
This cell line is considered to have atypical drug resistance properties with altered topoisomerase II catalytic activity without overexpression of P-glycoprotein.

For C=CC(C)(C)c1[nH]cnc1/C=C1\NC(=O)[C@@H](Cc2ccccc2)NC1=O [(+)-phenylahistin], the “inhibition percentage at 200 μM, microtubule protein polymerization” value ([1]; 200 μM) was 15%, the microtubule assembly ([1]; concentrations up to 200 μM) was “did not affect microtubule assembly” and the IC50 ([1]; microtubule protein 1.5 mg/mL (Table 9), read-out: IC50 Microtubule Protein polymerization) was > 200 µM. For the same compound, the IC50 ([1]; microtubule protein 1.5 mg/ml (Table 4), read-out: IC50 for Microtubule Protein Polymerization) was > 200 µM, the IC50 (Hela (ovary)) was 10 µM and the IC50 (A-431 (damal)) was 20 µM. For the same compound, the IC50 (WiDr (colon)) was 8.5 µM, the IC50 (A549 (lung)) was 30 µM and the IC50 (K562 (leukemia)) was 10 µM. The IC50 (TE-671 (CNS)) was 130 µM, the IC50 (MCF7 (breast)) was 11 µM and the “cell cycle inhibitory activity (G2/M)” value (P388 cells [2]) was “no effect”. The “fold less activity than (−)-PLH” value [3] was 33 to 100 fold, the IC50 (P388 cells [4]; Alamar Blue assay (Table 4), read-out: IC50 for P388 Proliferation) was 10 µM and the IC50 (P388 cells [4]; means (±SEM) of three experiments (Table 9), read-out: IC50 P388 proliferation) was 10 µM. For the same compound, the IC50 [5] was 38 µM, the IC50 [6] was 13.3 µg/mL (≈ 38 µM) and the IC50 [7] was 2.9 µg/mL (≈ 8.28 µM).
With O=C1c2c(O)ccc(O)c2C(=O)c2c(NCCNCCO)ccc(NCCNCCO)c21 [Mitoxantrone, reference compound] the IC50 (Jurkat cells [8]) was 0.041 µM, the “Cytotoxicity Efficacy % Cell Death” value (Jurkat cells [9]) was 99% and the “Ratio to Sensitive” value ([10]; HL-60 Resistant versus Sensitive) was 24 and 24.1. The IC50 ([10]; Homo sapiens, HL60/MX2, HL-60 Resistant) was 4.87 µM, the “reduced susceptibility of the MES-SA DX cell line” value [11] was 20 fold and the IC50 [12] was 0.202 µM.
